# ChEMBL document CHEMBL1201862, “PubChem BioAssay data set” (2004)
#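 Results reflect a 48-hour exposure of cells in 96-well plates to compound at five concentrations. GI50: concentration for 50% inhibition of growth.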 The source made the active and inactive calls. Cut-off read from the data, not from the text of the source: active = GI50 up to about 1.1 µM and inactive = higher.
# How the values were obtained:
# Assay in all cases: growth of human tumour cells (NCI), 48 h
# NCI-H522 = tested on: NCI-H522
# SF-295 = tested on: SF-295
# NCI/ADR-RES = tested on: NCI/ADR-RES
# Malme-3M = tested on: Malme-3M
# SK-MEL-2 = tested on: SK-MEL-2
# SR = tested on: SR
# PC-3 = tested on: PC-3
# HCC 2998 = tested on: HCC 2998
# HCT-15 = tested on: HCT-15
# KM12 = tested on: KM12
# HCT-116 = tested on: HCT-116
# RPMI-8226 = tested on: RPMI-8226
# SF-268 = tested on: SF-268
# CAKI-1 = tested on: CAKI-1
# SK-MEL-5 = tested on: SK-MEL-5
# COLO 205 = tested on: COLO 205
# MDA-MB-435 = tested on: MDA-MB-435
# SNB-19 = tested on: SNB-19
# DU-145 = tested on: DU-145
# OVCAR-3 = tested on: OVCAR-3
# HOP-92 = tested on: HOP-92
# OVCAR-8 = tested on: OVCAR-8
# MDA-MB-231 = tested on: MDA-MB-231
# SW-620 = tested on: SW-620
# MDA-N = tested on: MDA-N
# 786-0 = tested on: 786-0
# RXF 393 = tested on: RXF 393
# A498 = tested on: A498
# UO-31 = tested on: UO-31
# OVCAR-4 = tested on: OVCAR-4
# HOP-62 = tested on: HOP-62
# NCI-H460 = tested on: NCI-H460
# T47D = tested on: T47D
# UACC-62 = tested on: UACC-62
# UACC-257 = tested on: UACC-257
# M14 = tested on: M14
# TK-10 = tested on: TK-10
# MOLT-4 = tested on: MOLT-4
# IGROV-1 = tested on: IGROV-1
# SN12C = tested on: SN12C
# HL-60 = tested on: HL-60
# Hs-578T = tested on: Hs-578T
# NCI-H226 = tested on: NCI-H226
# U-251 = tested on: U-251
# CCRF-CEM = tested on: CCRF-CEM
# SK-MEL-28 = tested on: SK-MEL-28
# A549 = tested on: A549
# LOX IMVI = tested on: LOX IMVI
# SF-539 = tested on: SF-539
# SK-OV-3 = tested on: SK-OV-3
# HT-29 = tested on: HT-29
# MCF7 = tested on: MCF7
# NCI-H23 = tested on: NCI-H23
# BT-549 = tested on: BT-549
# ACHN = tested on: ACHN
# OVCAR-5 = tested on: OVCAR-5
# EKVX = tested on: EKVX
# SNB-75 = tested on: SNB-75
# K562 = tested on: K562
smiles,measurement,setting,value
C=C1c2[nH]c3ccccc3c2C2C(CC)C1CCN2C (stereo unspecified),GI50,NCI-H522,63.2 µM (inactive)
same,GI50,SF-295,55.8 µM (inactive)
same,GI50,NCI/ADR-RES,42.2 µM (inactive)
same,GI50,Malme-3M,24.3 µM (inactive)
same,GI50,SK-MEL-2,> 100 µM (inactive)
same,GI50,SR,34.8 µM (inactive)
same,GI50,PC-3,32.8 µM (inactive)
same,GI50,HCC 2998,18.5 µM (inactive)
same,GI50,HCT-15,90.8 µM
same,GI50,KM12,> 100 µM (inactive)
same,GI50,HCT-116,51.2 µM (inactive)
same,GI50,RPMI-8226,32.5 µM (inactive)
same,GI50,SF-268,> 100 µM (inactive)
same,GI50,CAKI-1,> 100 µM (inactive)
same,GI50,SK-MEL-5,61.1 µM (inactive)
same,GI50,COLO 205,16.7 µM (inactive)
same,GI50,MDA-MB-435,65.9 µM (inactive)
same,GI50,SNB-19,> 100 µM (inactive)
same,GI50,DU-145,> 100 µM (inactive)
same,GI50,OVCAR-3,> 100 µM (inactive)
same,GI50,HOP-92,25.6 µM (inactive)
same,GI50,OVCAR-8,53.1 µM (inactive)
same,GI50,MDA-MB-231,48.4 µM (inactive)
same,GI50,SW-620,> 100 µM (inactive)
same,GI50,MDA-N,72.8 µM (inactive)
same,GI50,786-0,> 100 µM (inactive)
same,GI50,RXF 393,> 100 µM (inactive)
same,GI50,A498,18.9 µM (inactive)
same,GI50,UO-31,> 100 µM (inactive)
same,GI50,OVCAR-4,53.6 µM (inactive)
same,GI50,HOP-62,> 100 µM (inactive)
same,GI50,NCI-H460,82 µM (inactive)
same,GI50,T47D,> 100 µM (inactive)
same,GI50,UACC-62,48.4 µM (inactive)
same,GI50,UACC-257,26 µM (inactive)
same,GI50,M14,19.3 µM (inactive)
same,GI50,TK-10,33.3 µM (inactive)
same,GI50,MOLT-4,27.2 µM (inactive)
same,GI50,IGROV-1,15.2 µM (inactive)
same,GI50,SN12C,98.4 µM (inactive)
same,GI50,HL-60,49.1 µM (inactive)
same,GI50,Hs-578T,40.9 µM (inactive)
same,GI50,NCI-H226,6.62 µM (inactive)
same,GI50,U-251,79.3 µM (inactive)
same,GI50,CCRF-CEM,54.6 µM (inactive)
same,GI50,SK-MEL-28,29.5 µM (inactive)
same,GI50,A549,> 100 µM (inactive)
same,GI50,LOX IMVI,49.7 µM (inactive)
same,GI50,SF-539,92 µM (inactive)
same,GI50,SK-OV-3,> 100 µM (inactive)
same,GI50,HT-29,27.8 µM (inactive)
same,GI50,MCF7,56.1 µM (inactive)
same,GI50,NCI-H23,> 100 µM (inactive)
same,GI50,BT-549,> 100 µM (inactive)
same,GI50,ACHN,> 100 µM (inactive)
same,GI50,OVCAR-5,> 100 µM (inactive)
same,GI50,EKVX,28.4 µM (inactive)
CC(=O)OCC1OC(Sc2nc(-c3ccccc3)c(C#N)c(=O)n2C2OC(COC(C)=O)C(OC(C)=O)C(OC(C)=O)C2OC(C)=O)C(OC(C)=O)C(OC(C)=O)C1OC(C)=O (stereo unspecified),GI50,NCI-H522,> 100 µM (inactive)
same,GI50,SF-295,> 100 µM (inactive)
same,GI50,NCI/ADR-RES,> 100 µM (inactive)
same,GI50,SK-MEL-2,> 100 µM (inactive)
same,GI50,SR,> 100 µM (inactive)
same,GI50,PC-3,> 100 µM (inactive)
same,GI50,HCC 2998,8.11 µM (inactive)
same,GI50,HCT-15,> 100 µM
same,GI50,KM12,> 100 µM (inactive)
same,GI50,HCT-116,> 100 µM (inactive)
same,GI50,RPMI-8226,> 100 µM (inactive)
same,GI50,SF-268,> 100 µM (inactive)
same,GI50,CAKI-1,> 100 µM (inactive)
same,GI50,SK-MEL-5,> 100 µM (inactive)
same,GI50,COLO 205,> 100 µM (inactive)
same,GI50,MDA-MB-435,> 100 µM (inactive)
same,GI50,DU-145,> 100 µM (inactive)
same,GI50,OVCAR-3,> 100 µM (inactive)
same,GI50,HOP-92,> 100 µM (inactive)
same,GI50,OVCAR-8,> 100 µM (inactive)
same,GI50,MDA-MB-231,> 100 µM (inactive)
same,GI50,SW-620,> 100 µM (inactive)
same,GI50,MDA-N,> 100 µM (inactive)
same,GI50,SNB-75,> 100 µM (inactive)
same,GI50,786-0,> 100 µM (inactive)
same,GI50,RXF 393,> 100 µM (inactive)
same,GI50,A498,> 100 µM (inactive)
same,GI50,UO-31,> 100 µM (inactive)
same,GI50,HOP-62,> 100 µM (inactive)
same,GI50,NCI-H460,> 100 µM (inactive)
same,GI50,T47D,> 100 µM (inactive)
same,GI50,UACC-62,> 100 µM (inactive)
same,GI50,UACC-257,> 100 µM (inactive)
same,GI50,M14,> 100 µM (inactive)
same,GI50,TK-10,> 100 µM (inactive)
same,GI50,MOLT-4,> 100 µM (inactive)
same,GI50,IGROV-1,> 100 µM (inactive)
same,GI50,SN12C,> 100 µM (inactive)
same,GI50,Hs-578T,> 100 µM (inactive)
same,GI50,K562,32.2 µM (inactive)
same,GI50,NCI-H226,> 100 µM (inactive)
same,GI50,U-251,> 100 µM (inactive)
same,GI50,SK-MEL-28,> 100 µM (inactive)
same,GI50,A549,> 100 µM (inactive)
same,GI50,LOX IMVI,> 100 µM (inactive)
same,GI50,SF-539,> 100 µM (inactive)
same,GI50,SK-OV-3,> 100 µM (inactive)
same,GI50,HT-29,> 100 µM (inactive)
same,GI50,MCF7,> 100 µM (inactive)
same,GI50,NCI-H23,> 100 µM (inactive)
same,GI50,BT-549,> 100 µM (inactive)
same,GI50,ACHN,> 100 µM (inactive)
same,GI50,OVCAR-5,> 100 µM (inactive)
same,GI50,EKVX,> 100 µM (inactive)
